# Measured values from ChEMBL document CHEMBL5113392, “Novel hybrid pyrrolidinedione-thiazolidinones as potential anticancer agents: Synthesis and biological evaluation” (Eur J Med Chem, 2022).
# Active and inactive are the calls of the source. The rule behind the calls is not given here.
# Columns and labels:
# CCRF-CEM [1] = assay: Anticancer activity against human CCRF-CEM cells assessed as growth inhibition incubated for 48 hrs by SRB assay; format: functional
# CCRF-CEM [2] = assay: Anticancer activity against human CCRF-CEM cells assessed as total growth inhibition incubated for 48 hrs by SRB assay; format: functional
# HOP-92 = assay: Anticancer activity against human HOP-92 cells assessed as growth inhibition incubated for 48 hrs by SRB assay; format: functional
# NCI-H322M = assay: Anticancer activity against human NCI-H322M cells assessed as growth inhibition incubated for 48 hrs by SRB assay; format: functional
# NCI-H522 = assay: Anticancer activity against human NCI-H522 cells assessed as growth inhibition incubated for 48 hrs by SRB assay; format: functional
# COLO 205 [3] = assay: Anticancer activity against human COLO 205 cells assessed as growth inhibition incubated for 48 hrs by SRB assay; format: functional
# SF-539 [4] = assay: Anticancer activity against human SF-539 cells assessed as growth inhibition incubated for 48 hrs by SRB assay; format: functional
# SK-MEL-28 = assay: Anticancer activity against human SK-MEL-28 cells assessed as growth inhibition incubated for 48 hrs by SRB assay; format: functional
# OVCAR-4 = assay: Anticancer activity against human OVCAR-4 cells assessed as growth inhibition incubated for 48 hrs by SRB assay; format: functional
# OVCAR-8 = assay: Anticancer activity against human OVCAR-8 cells assessed as growth inhibition incubated for 48 hrs by SRB assay; format: functional
# UO-31 = assay: Anticancer activity against human UO-31 cells assessed as growth inhibition incubated for 48 hrs by SRB assay; format: functional
# PC-3 [5] = assay: Anticancer activity against human PC-3 cells assessed as growth inhibition incubated for 48 hrs by SRB assay; format: functional
# MDA-MB-468 [6] = assay: Anticancer activity against human MDA-MB-468 cells assessed as growth inhibition incubated for 48 hrs by SRB assay; format: functional
# MOLT-4 = assay: Anticancer activity against human MOLT-4 cells assessed as total growth inhibition incubated for 48 hrs by SRB assay; format: functional
# SR = assay: Anticancer activity against human SR cells assessed as total growth inhibition incubated for 48 hrs by SRB assay; format: functional
# COLO 205 [7] = assay: Anticancer activity against human COLO 205 cells assessed as total growth inhibition incubated for 48 hrs by SRB assay; format: functional
# HCT-116 [8] = assay: Anticancer activity against human HCT-116 cells assessed as total growth inhibition incubated for 48 hrs by SRB assay; format: functional
# HCT-15 = assay: Anticancer activity against human HCT-15 cells assessed as total growth inhibition incubated for 48 hrs by SRB assay; format: functional
# SF-539 [9] = assay: Anticancer activity against human SF-539 cells assessed as total growth inhibition incubated for 48 hrs by SRB assay; format: functional
# SNB-19 [10] = assay: Anticancer activity against human SNB-19 cells assessed as total growth inhibition incubated for 48 hrs by SRB assay; format: functional
# M14 = assay: Anticancer activity against human M14 cells assessed as total growth inhibition incubated for 48 hrs by SRB assay; format: functional
# MDA-MB-435 = assay: Anticancer activity against human MDA-MB-435 cells assessed as total growth inhibition incubated for 48 hrs by SRB assay; format: functional
# SK-MEL-2 = assay: Anticancer activity against human SK-MEL-2 cells assessed as total growth inhibition incubated for 48 hrs by SRB assay; format: functional
# OVCAR-5 = assay: Anticancer activity against human OVCAR-5 cells assessed as total growth inhibition incubated for 48 hrs by SRB assay; format: functional
# 786-0 = assay: Anticancer activity against human 786-0 cells assessed as total growth inhibition incubated for 48 hrs by SRB assay; format: functional
# ACHN = assay: Anticancer activity against human ACHN cells assessed as total growth inhibition incubated for 48 hrs by SRB assay; format: functional
# SN12C [11] = assay: Anticancer activity against human SN12C cells assessed as total growth inhibition incubated for 48 hrs by SRB assay; format: functional
# MCF7 = assay: Anticancer activity against human MCF7 cells assessed as total growth inhibition incubated for 48 hrs by SRB assay; format: functional
# MDA-MB-468 [12] = assay: Anticancer activity against human MDA-MB-468 cells assessed as total growth inhibition incubated for 48 hrs by SRB assay; format: functional
# EKVX = assay: Anticancer activity against human EKVX cells assessed as lethality incubated for 48 hrs by SRB assay; format: functional; conditions: read-out: LC50 (the source's name)
# NCI-H226 = assay: Anticancer activity against human NCI-H226 cells assessed as lethality incubated for 48 hrs by SRB assay; format: functional; conditions: read-out: LC50 (the source's name)
# KM12 = assay: Anticancer activity against human KM12 cells assessed as lethality incubated for 48 hrs by SRB assay; format: functional; conditions: read-out: LC50 (the source's name)
# SW-620 = assay: Anticancer activity against human SW-620 cells assessed as lethality incubated for 48 hrs by SRB assay; format: functional; conditions: read-out: LC50 (the source's name)
# SF-539 [13] = assay: Anticancer activity against human SF-539 cells assessed as lethality incubated for 48 hrs by SRB assay; format: functional; conditions: read-out: LC50 (the source's name)
# SNB-19 [14] = assay: Anticancer activity against human SNB-19 cells assessed as lethality incubated for 48 hrs by SRB assay; format: functional; conditions: read-out: LC50 (the source's name)
# OVCAR-3 = assay: Anticancer activity against human OVCAR-3 cells assessed as lethality incubated for 48 hrs by SRB assay; format: functional; conditions: read-out: LC50 (the source's name)
# RXF 393 = assay: Anticancer activity against human RXF 393 cells assessed as lethality incubated for 48 hrs by SRB assay; format: functional; conditions: read-out: LC50 (the source's name)
# SN12C [15] = assay: Anticancer activity against human SN12C cells assessed as lethality incubated for 48 hrs by SRB assay; format: functional; conditions: read-out: LC50 (the source's name)
# PC-3 [16] = assay: Anticancer activity against human PC-3 cells assessed as lethality incubated for 48 hrs by SRB assay; format: functional; conditions: read-out: LC50 (the source's name)
# HCT-116 [17] = assay: Anticancer activity against human HCT-116 cells assessed as cell growth inhibition incubated for 72 hrs by MTT assay; format: functional
# [18] = Cytotoxicity against human HaCaT cells assessed as cell growth inhibition incubated for 72 hrs by MTT assay; format: toxicity, cell-based
# [19] = Selectivity index, ratio of GI50 for human HaCaT cells to GI50 for human Jurkat cells; format: toxicity; conditions: HaCaT cells versus Jurkat cells, read-out: RatioGI50
# [20] = Selectivity index, ratio of GI50 for human HaCaT cells to GI50 for human KB 3-1 cells; format: toxicity; conditions: HaCaT cells versus KB 3-1 cells, read-out: RatioGI50
# [21] = Selectivity index, ratio of GI50 for human HaCaT cells to GI50 for human HeLa cells; format: toxicity; conditions: HaCaT cells versus HeLa cells, read-out: RatioGI50
# Jurkat [22] = assay: Induction of morphological changes in human Jurkat cells assessed as chromatin topology incubated for 24 hrs by Hoechst 33258 and propidium iodide staining based fluorescence microscopy; format: functional, cell-based
# Jurkat [23] = assay: Induction of morphological changes in human Jurkat cells assessed as chromatin condensation incubated for 24 hrs by Hoechst 33258 and propidium iodide staining based fluorescence microscopy; format: functional, cell-based
# Jurkat [24] = assay: Induction of morphological changes in human Jurkat cells assessed as chromatin fragmentation incubated for 24 hrs by Hoechst 33258 and propidium iodide staining based fluorescence microscopy; format: functional, cell-based
# Jurkat [25] = assay: Induction of morphological changes in human Jurkat cells assessed as plasma membrane blebbing incubated for 24 hrs by Hoechst 33258 and propidium iodide staining based fluorescence microscopy; format: functional, cell-based
# Lymphocyte = assay: Induction of morphological changes in mitogen activated human peripheral blood lymphocytes assessed as increase in necrotic cells incubated for 24 hrs by Hoechst 33258 and propidium iodide staining based fluorescence microscopy; format: toxicity, cell-based
compound,measurement,setting,value
O=C1CC(N2C(=O)/C(=C/C(Cl)=C/c3ccc([N+](=O)[O-])cc3)SC2=S)C(=O)N1c1ccc(O)cc1 (stereo not drawn),GI50,CCRF-CEM [1],0.385 µM
same,TGI,CCRF-CEM [2],3.87 µM
same,GI50,HOP-92,1.62 µM
same,GI50,NCI-H322M,2.34 µM
same,GI50,NCI-H522,1.86 µM
same,GI50,COLO 205 [3],1.83 µM
same,GI50,SF-539 [4],1.72 µM
same,GI50,SK-MEL-28,1.95 µM
same,GI50,OVCAR-4,5.13 µM
same,GI50,OVCAR-8,2.16 µM
same,GI50,UO-31,1.35 µM
same,GI50,PC-3 [5],0.906 µM
same,GI50,MDA-MB-468 [6],1.87 µM
same,TGI,MOLT-4,15.3 µM
same,TGI,SR,4.97 µM
same,TGI,COLO 205 [7],5.04 µM
same,TGI,HCT-116 [8],2.14 µM
same,TGI,HCT-15,1.95 µM
same,TGI,SF-539 [9],3.81 µM
same,TGI,SNB-19 [10],3.47 µM
same,TGI,M14,3.31 µM
same,TGI,MDA-MB-435,4.34 µM
same,TGI,SK-MEL-2,7.83 µM
same,TGI,OVCAR-5,3.7 µM
same,TGI,786-0,4.8 µM
same,TGI,ACHN,2.76 µM
same,TGI,SN12C [11],5.88 µM
same,TGI,MCF7,10.7 µM
same,TGI,MDA-MB-468 [12],5.7 µM
same,CC50,EKVX,35.3 µM
same,CC50,NCI-H226,50.3 µM
same,CC50,KM12,15.8 µM
same,CC50,SW-620,6.3 µM
same,CC50,SF-539 [13],8.43 µM
same,CC50,SNB-19 [14],8.97 µM
same,CC50,OVCAR-3,4.96 µM
same,CC50,RXF 393,6.76 µM
same,CC50,SN12C [15],24.6 µM
same,CC50,PC-3 [16],8.6 µM
same,GI50,HCT-116 [17],4.52 µM
same,GI50 at 72 h,[18],73.6 µM
same,selectivity ratio,[19],56.6
same,selectivity ratio,[20],9.2
same,selectivity ratio,[21],12
same,Activity,Jurkat [22],Active
same,Activity,Jurkat [23],Active
same,Activity,Jurkat [24],Active
same,Activity,Jurkat [25],Active
same,Activity,Lymphocyte,Toxic
O=C1CC(N2C(=O)/C(=C/C(Cl)=C/c3ccc([N+](=O)[O-])cc3)SC2=S)C(=O)N1c1ccc(Cl)cc1 (stereo not drawn),GI50,CCRF-CEM [1],0.486 µM
same,TGI,CCRF-CEM [2],12.4 µM
same,GI50,HOP-92,2.58 µM
same,GI50,NCI-H322M,3 µM
same,GI50,NCI-H522,1.73 µM
same,GI50,COLO 205 [3],1.4 µM
same,GI50,SF-539 [4],1.69 µM
same,GI50,SK-MEL-28,1.71 µM
same,GI50,OVCAR-4,5.55 µM
same,GI50,OVCAR-8,0.832 µM
same,GI50,UO-31,1.07 µM
same,GI50,PC-3 [5],1.34 µM
same,GI50,MDA-MB-468 [6],1.33 µM
same,TGI,MOLT-4,13.4 µM
same,TGI,SR,14.2 µM
same,TGI,COLO 205 [7],3.76 µM
same,TGI,HCT-116 [8],3.04 µM
same,TGI,HCT-15,8.2 µM
same,TGI,SF-539 [9],4.14 µM
same,TGI,SNB-19 [10],2.97 µM
same,TGI,M14,5.06 µM
same,TGI,MDA-MB-435,3.39 µM
same,TGI,SK-MEL-2,32.1 µM
same,TGI,OVCAR-5,4.46 µM
same,TGI,786-0,3.33 µM
same,TGI,ACHN,3.48 µM
same,TGI,SN12C [11],11.1 µM
same,TGI,MCF7,> 100 µM
same,TGI,MDA-MB-468 [12],3.1 µM
same,CC50,EKVX,> 100 µM
same,CC50,NCI-H226,> 100 µM
same,CC50,KM12,> 100 µM
same,CC50,SW-620,> 100 µM
same,CC50,SF-539 [13],> 100 µM
same,CC50,SNB-19 [14],7.54 µM
same,CC50,OVCAR-3,8.89 µM
same,CC50,RXF 393,5.86 µM
same,CC50,SN12C [15],> 100 µM
same,CC50,PC-3 [16],> 100 µM
same,GI50,HCT-116 [17],9.18 µM
same,GI50 at 72 h,[18],> 100 µM
same,selectivity ratio,[19],29.4
same,selectivity ratio,[20],1.42
same,selectivity ratio,[21],15
same,Activity,Jurkat [22],Active
same,Activity,Jurkat [23],Active
same,Activity,Jurkat [24],Active
same,Activity,Jurkat [25],Active
same,Activity,Lymphocyte,Toxic
